The values that follow come from article PMC9374667 (Communications Biology, 2022).

The target of one series is T1, IKKε (Mus musculus, UniProt Q9R0T8).
T1 sequence (Q9R0T8 1-717): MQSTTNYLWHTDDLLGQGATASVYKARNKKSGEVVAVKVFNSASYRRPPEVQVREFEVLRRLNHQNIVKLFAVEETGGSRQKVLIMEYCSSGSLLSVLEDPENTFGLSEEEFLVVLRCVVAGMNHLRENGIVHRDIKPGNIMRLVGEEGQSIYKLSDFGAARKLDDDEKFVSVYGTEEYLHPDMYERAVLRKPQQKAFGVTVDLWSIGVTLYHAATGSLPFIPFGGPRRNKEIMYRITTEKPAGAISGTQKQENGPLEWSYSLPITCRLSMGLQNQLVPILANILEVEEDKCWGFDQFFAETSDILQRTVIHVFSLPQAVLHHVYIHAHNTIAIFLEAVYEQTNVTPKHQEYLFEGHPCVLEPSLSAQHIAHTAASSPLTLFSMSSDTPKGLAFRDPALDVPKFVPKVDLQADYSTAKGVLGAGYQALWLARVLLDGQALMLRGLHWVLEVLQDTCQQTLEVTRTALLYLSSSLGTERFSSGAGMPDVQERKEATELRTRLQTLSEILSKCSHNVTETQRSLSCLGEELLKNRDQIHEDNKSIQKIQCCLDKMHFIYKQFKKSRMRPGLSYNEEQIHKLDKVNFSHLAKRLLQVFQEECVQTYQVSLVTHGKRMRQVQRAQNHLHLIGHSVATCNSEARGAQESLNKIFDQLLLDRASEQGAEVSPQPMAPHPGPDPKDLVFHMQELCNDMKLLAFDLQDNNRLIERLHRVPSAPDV
Put plainly: IKKε activity assay in BAT. Details: The adipose tissue was ultrasound-crushed in PBS buffer solution (1:9 w/v) to prepare the tissue homogenate; from tissue; host or cells: epididymal white adipose tissue (eWAT) and brown adipose tissue (BAT) of C57BLKS WT and db/db mice. Format: in vivo, mice. The following applies: for the expression of IKKε in BAT of db/db mice: Figure 6l, individual values. Here is the method: The adipose tissue was ultrasound-crushed in PBS buffer solution (1:9 w/v) to prepare the tissue homogenate. The tissue homogenate was centrifuged at 5000 × g for 10 min, and the supernatant was taken for detection. Briefly, samples or standards were added to the microplates pre-coated with IKKε antibody or TBK1 antibody. Then horseradish peroxidase (HRP) labeled antibody was added and incubated at 37 °C for 60 min. After thorough washing, the 3,3′,5,5′-tetramethylbenzidine (TMB) substrate was used for color development, and the absorbance (OD value) was determined at 450 nm.

For the next series, the target named is T2, TBK1 (Mus musculus, UniProt Q9WUN2).
T2 sequence (Q9WUN2 1-729): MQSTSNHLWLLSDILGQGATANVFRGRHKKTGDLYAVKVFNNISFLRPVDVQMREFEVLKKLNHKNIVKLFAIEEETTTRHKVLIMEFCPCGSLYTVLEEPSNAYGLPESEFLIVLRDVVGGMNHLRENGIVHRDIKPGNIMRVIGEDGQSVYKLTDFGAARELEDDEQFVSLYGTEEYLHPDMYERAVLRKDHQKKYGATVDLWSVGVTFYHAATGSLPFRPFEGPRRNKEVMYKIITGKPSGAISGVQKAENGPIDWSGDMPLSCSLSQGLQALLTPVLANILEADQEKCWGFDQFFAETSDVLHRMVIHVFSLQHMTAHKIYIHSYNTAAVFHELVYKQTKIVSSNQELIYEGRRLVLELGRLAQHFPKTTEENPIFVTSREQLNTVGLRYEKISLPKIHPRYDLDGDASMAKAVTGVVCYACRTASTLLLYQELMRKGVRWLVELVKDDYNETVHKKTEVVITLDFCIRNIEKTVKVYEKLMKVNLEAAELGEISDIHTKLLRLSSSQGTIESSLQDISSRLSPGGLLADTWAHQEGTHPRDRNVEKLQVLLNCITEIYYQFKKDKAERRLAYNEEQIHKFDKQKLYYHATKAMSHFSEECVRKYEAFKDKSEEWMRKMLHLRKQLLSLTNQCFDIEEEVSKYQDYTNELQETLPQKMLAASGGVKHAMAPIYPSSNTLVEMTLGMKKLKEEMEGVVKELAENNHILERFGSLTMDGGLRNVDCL
Put plainly: TBK1-knockdown 3T3-L1 adipocytes (siRNA; western blotting, immunofluorescence). Format: cell-based, Murine. Details: host or cells: differentiated 3T3-L1 adipocytes (Lipofectamine 2000); TBK1 (western blotting, Figure 9b) / p-AMPK (western blotting, Figure 9c) / UCP1 (western blotting, Figure 9d): unit not given here. The following applies: for MitoTracker (immunofluorescence, Figure 9f) / UCP1 (immunofluorescence, Figure 9g): replicates 1-12. Here is the method:
Small interference RNA transfection (siRNA) was performed using 4 μM TBK1 siRNA (siTBK1) or 4 μM […]ε) or corresponding NC siRNA (siNC). The 3T3-L1 adipocytes were washed with PBS for 3 times, fixed with 4% paraformaldehyde solution for 30 min, and then washed again for 3 times. […] The cells were then incubated overnight at 4 °C with the appropriate primary antibodies (1:100 dilution). The next day, the 3T3-L1 adipocytes were washed and incubated at room temperature with goat anti-rabbit secondary antibody or goat anti-mouse secondary antibody (1:1000 dilution) for 2 h and washed with PBS for 3 times. The nuclei were stained with DAPI. […] Fluorescence images were taken using a laser confocal microscope (SP8, Leica, Germany). At least four images per section were acquired for quantification, and the mean intensity were evaluated using ImageJ. The adipose tissue or 3T3-L1 adipocytes were homogenized by ultrasound in an ice-cold RIPA lysis buffer containing 1% PMSF and centrifuged at 12,000 × g at 4°C for 15 min to collect the supernatant. The BCA protein assay kit (Beyotime, Shanghai, China) was used to detect the total protein concentration. Proteins (20-30 μg) of the sample were separated by 10% SDS-PAGE gel and transferred onto polyvinylidene difluoride (PVDF) membranes. Then the PVDF membranes were blocked in 5% skim milk powder in TBS containing 1% Tween-20 (TBST) for 2 h at room temperature and washed with TBST for 3 times. […] After washing, the membranes were incubated with horseradish peroxidase-conjugated secondary antibodies (in 5% skim milk powder) for 1 h at room temperature. Finally, the membranes were treated with enhanced chemiluminescence agents (Tanon, Shanghai, China) and the signals were monitored using the Tanon 5200 multi chemiluminescent imaging system (Tanon, Shanghai, China).
In general terms: Immunoblotting shows a protein as a band on a membrane.

For series [1] the following is noted: cited from earlier work.

Where “and” joins values, the source holds several entries; their conditions need not be identical. Equal values may be shown once.

Consider `CC(C)Cc1ccc(C(C)C(=O)[O-])cc1.COc1ccc2cc3[n+](cc2c1OC)CCc1cc2c(cc1-3)OCO2.O.O.O.O` [BJ, berberine-ibuprofen], for which the “the expression of IKKε in BAT of db/db mice” value on IKKε (db/db+BJ 75mg/kg) is 0.441 U/g and 0.458 U/g and 0.427 U/g and 0.409 U/g and 0.371 U/g and 0.436 U/g. Also, the “the expression of IKKε in BAT of db/db mice” value at IKKε (db/db+BJ 150mg/kg) was 0.429 U/g and 0.4 U/g and 0.314 U/g and 0.335 U/g and 0.348 U/g and 0.398 U/g. Also, the “IKKε activity and expression levels in BAT” value at IKKε (db/db mice, both doses of BJ) is listed as “had no effect”. Also, at TBK1 (10μM BJ), the “TBK1 (western blotting, Figure 9b)” value is 0.1548 and 0.1822 and 0.1679; the “UCP1 (western blotting, Figure 9d)” value is 0.6444 and 0.6902 and 0.5582; the “p-AMPK (western blotting, Figure 9c)” value was 0.3674 and 0.4043 and 0.3553; the “MitoTracker (immunofluorescence, Figure 9f)” value is 22.957 and 24.343 and 25.025 and 18.793 and 24.708 and 21.147 and 28.941 and 23.595 and 21.858 and 24.262 and 23.917 and 27.936. Also, the “UCP1 (immunofluorescence, Figure 9g)” value at TBK1 (10μM BJ) was 28.366 and 25.764 and 25.784 and 25.906 and 27.454 and 28.774 and 34.011 and 26.939 and 25.523 and 31.625 and 28.718 and 27.261. In addition, the “Expression of p-AMPKα and UCP1” value at TBK1 (3T3-L1 adipocytes, BJ alone, 24 h) was “significantly increased the expression of p-AMPKα and UCP1”. Further, at TBK1 (TBK1-knockdown 3T3-L1 adipocytes treated with BJ, vs TBK1-knockdown), the “Expression levels of p-AMPKα and UCP1” value was “not significantly changed”. Also, on TBK1 (siTBK1+10μM BJ), the “TBK1 (western blotting, Figure 9b)” value is 0.1211 and 0.0965 and 0.1123; the “UCP1 (western blotting, Figure 9d)” value was 0.7411 and 0.669 and 0.5981; the “p-AMPK (western blotting, Figure 9c)” value was 0.4095 and 0.4234 and 0.498; the “MitoTracker (immunofluorescence, Figure 9f)” value was 25.218 and 30.785 and 30.877 and 30.71 and 22.848 and 22.479 and 31.768 and 31.566 and 27.335 and 20.91 and 29.763 and 33.52. Besides, on TBK1 (siTBK1+10μM BJ), the “UCP1 (immunofluorescence, Figure 9g)” value was 30.066 and 28.142 and 35.211 and 34.925 and 27.446 and 30.425 and 28.118 and 35.655 and 39.617 and 27.871 and 25.612 and 40.285.

`COc1ccc2cc3[n+](cc2c1OC)CCc1cc2c(cc1-3)OCO2` [BBR, Berberine chloride dihydrate]: the “Maximum plasma concentration (Cmax)” value in series [1] (acute oral BBR (400 mg) provocation tests) was “approximately 0.4 ng/ml”. In addition, the “Share of the oral dose that enters the systemic circulation” value in series [1] (human subjects) is listed as “less than 5%”. Moreover, the “Steady-state concentration in human plasma” value in series [1] (oral BBR 300 mg/d for seven days) is “approximately 0.3 ng/ml”.
